Patent publication US9890327B2, “Phosphorescent transition metal complex, its preparation and use” (City University of Hong Kong, priority 2015, dated 2018)

Columns and labels:
[1] = degassed CH3CN solution, λex=355 nm; cited from earlier work
[2] = Photophysical properties (emission, lifetime, luminescence quantum yield); format: physicochemical; conditions: for Φem / λem / τo: 298 K
Procedure: ^1H NMR spectra were recorded on a Bruker 400 MHz AVANCE III spectrometer at 298 K using deuterated solvents. Chemical shifts (8, ppm) were reported relative to tetramethylsilane (TMS). Positive-ion electrospray ionization (ESI) mass spectra were recorded on a Perkin Elmer Sciex API 365 mass spectrometer at 298 K. IR spectra of the samples in KBr pellets were recorded in the range of 4000-400 cm^−1 using a Perkin Elmer FTIR-1600 spectrophotometer. Electronic absorption and steady-state emission spectra were recorded on a Hewlett-Packard 8453 diode array spectrophotometer and a SPEX Fluorolog 3-TCSPC spectrofluorometer, respectively. Emission lifetimes were measured in the Fast MCS or TCSPC mode with a NanoLED N-375 as the excitation source. Unless specified otherwise, all solutions for photophysical studies were degassed with no fewer than four successive freeze-pump-thaw cycles and stored in a 10 cm^3 round bottomed flask equipped with a side-arm 1-cm fluorescence cuvette and sealed from the atmosphere by a Rotaflo HP6/6 quick-release Teflon stopper. Luminescence quantum yields were measured by the optically dilute method (Demas, J N., Crosby, G A J., Phys. Chem., 1971, 75:991-1024) using a degassed CH3CN solution of [Re(phen)(CO)3(pyridine)](CF3SO3) (phen=1,10-phenanthroline) (φem=0.18, λex=355 nm) as the standard solution.
The photophysical data are summarized in Table 2, and the emission spectra of metal complex of Formula (IV) in CH3CN and aqueous buffer solutions at 298 K are shown in FIG. 2.

[3] = Reaction kinetics with H2O2 under pseudo first-order conditions, UV-Visible spectroscopy; format: physicochemical; conditions: 298 K
Procedure: Kinetics experiments for the reactions of metal complex of Formula (IV) with H2O2 were performed under pseudo first-order conditions. Metal complex of Formula (IV) (10 μM) was reacted with H2O2 in a 1:100, 1:200, 1:400, or 1:800 molar ratio in potassium phosphate buffer (50 mM, pH 7.4)/DMSO (99:1, v/v) at 298 K. The reactions were monitored by UV-Visible spectroscopy at ca. 343 nm. The kobs values were determined by fitting the experimental data to the first-order rate equation, [A]=[A]oe^−kt. The k2 value was determined by plotting kobs versus [H2O2] and the rate constant corresponds to the determined slope.
The change in absorption spectrum of metal complex of Formula (IV) (10 μM) in aerated potassium phosphate buffer (50 mM, pH 7.4)/DMSO (99:1, v/v) in the presence of H2O2(1 mM) at 298 K is shown in FIG. 3. […] The pseudo first-order rate constant (kobs) of reaction of metal complex of Formula (IV) (10 μM) was determined to be (0.6375±0.0092)×10^−3 s^−1. The plot of kobs of reactions of metal complex of Formula (IV) with H2O2 against various concentrations of H2O2 is shown in FIG. 4.

[4] = H2O2-sensing emission titration; format: physicochemical; conditions: complex 10 μM, buffer pH 7.4/DMSO (99:1)
Procedure: (§1) In H2O2-sensing studies, various amounts of H2O2 (25 mM; 0-20 μL) were added to a series of solutions containing metal complex of Formula (IV) (10 μM) in potassium phosphate buffer (50 mM, pH 7.4)/DMSO (99:1, v/v). The reaction mixtures were incubated in the dark at room temperature for 1.5 h, and their emission spectra were then measured. The limit of detection was determined according to the equation, […]. In the selectivity studies, different reactive oxygen species (100 μM) were added into a series of solutions containing metal complex of Formula (IV) (10 μM) in potassium phosphate buffer (50 mM, pH 7.4)/DMSO (99:1, v/v). The reaction mixtures were incubated in the dark at room temperature for 1.5 h, and their emission spectra were then measured. H2O2 was diluted from a stabilized 30% aqueous solution. TBHP was diluted from a 70% aqueous solution. NOC-7, KO2, and NaOCl were used as the sources of NO, O2^−, and ClO^−, respectively. Singlet oxygen (^1O2) was generated by the reaction of NaOCl and H2O2(Held, A M. Et al., Am. Chem. Soc., 1978, 100:5732-5740; Aubry, J M., J. Am. Chem. Soc., 1985, 107:5844-5849). Hydroxyl radicals (OH.) were generated by the reaction of ammonium iron(II) sulfate hexahydrate and H2O2.
The reactivity of metal complex of Formula (IV) with H2O2 was examined by emission titrations and the emission titration traces and corresponding titration curve are shown in FIGS. 5 and 6, respectively. […] The detection limit was calculated to be 1.84 μM.

[5] = Selectivity study: emission response toward reactive oxygen species; format: physicochemical; conditions: complex 10 μM, buffer pH 7.4/DMSO (99:1), 1.5 h
Procedure: as §1, with “H2O2. […]” for “H2O2.”

[6] = system: HeLa cells; experiment: Cytotoxicity by MTT assay; format: cell-based
Procedure: To confirm the suitability of the possibility of metal complex of Formula (IV) as phosphorescent sensor for intracellular H2O2, the cytotoxicity of metal complex of Formula (IV) was examined by the MTT assay.
HeLa cells were cultured in growth medium in a humidified chamber at 37° C. under a 5% CO2 atmosphere. The cells were subcultured every 2-3 days. HeLa cells were seeded in a 96-well flat-bottomed microplate (10,000 cells/well) in a growth medium (100 μL) and incubated at 37° C. under a 5% CO2 atmosphere for 24 h. […] The wells containing untreated cells were used as blank controls. […] Then MTT in PBS (5 mg/mL; 10 μL) was added to each well. The microplate was then incubated for another 4 h. The medium was removed and DMSO (200 μL) was added to each well. The microplate was further incubated for 10 min. The absorbance of the solutions at 570 nm was measured with a SPECTRAmax 340 microplate reader (Molecular Devices Corp., Sunnyvale, Calif.). Percentage cell survival was calculated relative to the absorbance of the control for each treatment. The viability of untreated cells was assumed to be 100%.

[7] = system: HeLa cells; experiment: Live-cell imaging by laser-scanning confocal microscopy (uptake, mitochondrial co-staining, intracellular H2O2); format: cell-based
Procedure: For co-staining experiments, HeLa cells in growth medium were seeded on a sterilized coverslip in a 35-mm tissue culture dish and grown at 37° C. under a 5% CO2 atmosphere for 48 h. The medium was removed and the cells were incubated with metal complex of Formula (IV) (10 μM) in growth medium/DMSO (99:1, v/v) for 40 min and then with MitoTracker Deep Red FM (100 nM) in a FBS-free medium for another 20 min. Prior to imaging, the cells were washed with PBS (1 mL×3), mounted onto a sterilized glass slide, and then imaged using a Leica TCS SPE confocal microscope with an oil immersion 63× objective. The excitation wavelength for metal complex of Formula (IV) was 405 nm and that of MitoTracker Deep Red FM was 633 nm. The Pearson's coefficient was determined by the program Image J (version 1.45k). For imaging of intracellular H2O2, HeLa cells in growth medium were seeded on a sterilized coverslip in a 35-mm tissue culture dish and grown at 37° C. under a 5% CO2 atmosphere for 48 h. The medium was removed and the cells were incubated with metal complex of Formula (IV) (10 μM) in growth medium/DMSO (99:1, v/v) for 1 h. The stained cells were washed with PBS (1 mL×3) and further treated with H2O2 (1 mM) in growth medium for another 2 h. Prior to imaging, the cells were washed with PBS (1 mL×3), mounted onto a sterilized glass slide, and then imaged using a Leica TCS SPE confocal microscope with an oil immersion 63× objective.
The use of metal complex of Formula (IV) for intracellular H2O2-sensing was evaluated by laser-scanning confocal microscopy. […] (FIG. 10D to 10F). This implies that the internalization of metal complex of Formula (IV) involved an energy-requiring pathway such as endocytosis.
With reference to FIG. 11A to 11C, the metal complex of Formula (IV) was localized in the mitochondria (Pearson's coefficient: 0.99).

[8] = Potassium phosphate buffer (50 mM, pH 7.4)/MeOH (7:3, v/v)

O=S(=O)([O-])C(F)(F)F.[C-]#[O+].[C-]#[O+].[C-]#[O+].[Re+].c1ccncc1.c1cnc2c(c1)ccc1cccnc12 [[Re(phen)(CO)3(pyridine)](CF3SO3)]
φem of standard solution [1]: 0.18

[Re(Ph2-phen)(CO)3(py-3-C(═O)C(═O)C6H3(NH2)(NO2)](CF3SO3) [Metal complex of Formula (IV)]
Φem ([2]; CH3CN): 0.007
λem ([2]; CH3CN): 554 nm
τo ([2]; CH3CN): 4.83 μs
Φem [2, 8]: 0.005
λem [2, 8]: 557 nm
τo [2, 8]: 3.14 μs
luminescence quantum yield ([2]; upon irradiation, very weak MLCT emission): < 0.007
pseudo first-order rate constant (kobs) ([3]; complex 10 μM, H2O2 (1 mM), aerated potassium phosphate buffer (50 mM, pH 7.4)/DMSO (99:1, v/v)): (0.6375±0.0092)×10^−3 s^−1
second-order rate constant ([3]; slope of kobs versus [H2O2], potassium phosphate buffer (50 mM, pH 7.4)/DMSO (99:1, v/v)): 0.7301 ± 0.0134 M⁻¹ s⁻¹
emission enhancement (I/I0) ([4]; [H2O2]=250 μM, 1.5 h): 20.6
H2O2 concentration range of good linearity of emission intensity enhancement [4]: 0 to 50 µM
detection limit for H2O2 [4]: 1.84 µM
emission response toward H2O2 ([5]; H2O2 100 μM): significant emission enhancement
emission response toward TBHP, 1O2, OH., NO, O2−, ClO− ([5]; ROS 100 μM): did not induce any significant changes in the emission intensity
cytotoxic effect under imaging experiment conditions ([6]; 10 μM, 1 h): would not cause significant cytotoxic effect
IC50 ([6]; HeLa cells, 48 h, MTT): 3.34 ± 0.05 µM
emission intensity of the cells at lowered incubation temperature ([7]; HeLa cells, 10 μM, 1 h, 4° C.): significantly reduced
intracellular emission ([7]; HeLa cells, 10 μM, 1 h, 37° C.): weak intracellular emission in the perinuclear region
intracellular emission intensity after incubation with H2O2 ([7]; complex-stained HeLa cells, H2O2 1 mM, 2 h): significantly enhanced
